This is an account of results in ChEMBL document CHEMBL1255194, “A stereo-controlled synthesis of 2,4-dimethyl-4-hydroxy-16-phenylhexadecanoic acid 1,4-lactone and its PPAR activities” (Bioorg Med Chem Lett, 2010).

Assay [1] has as its target T1, Peroxisome proliferator-activated receptor delta (Mus musculus, UniProt P35396).
T1 sequence (P35396 whole entry): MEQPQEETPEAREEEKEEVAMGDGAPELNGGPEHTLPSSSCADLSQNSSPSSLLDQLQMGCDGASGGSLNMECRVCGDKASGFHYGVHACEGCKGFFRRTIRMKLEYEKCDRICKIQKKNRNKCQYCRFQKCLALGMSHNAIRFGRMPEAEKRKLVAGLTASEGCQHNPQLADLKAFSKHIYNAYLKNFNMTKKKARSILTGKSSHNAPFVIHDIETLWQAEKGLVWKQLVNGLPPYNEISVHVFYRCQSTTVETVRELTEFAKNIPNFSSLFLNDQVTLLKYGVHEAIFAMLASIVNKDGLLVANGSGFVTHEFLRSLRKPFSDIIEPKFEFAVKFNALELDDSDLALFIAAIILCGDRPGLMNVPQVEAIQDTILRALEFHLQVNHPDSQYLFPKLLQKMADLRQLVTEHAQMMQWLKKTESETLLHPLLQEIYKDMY
Kind of assay: Transactivation of mouse PPARdelta expressed in CV1 cells. The format is cell-based, CV-1.

The target in assay [2] is T2, Peroxisome proliferator-activated receptor gamma (Mus musculus, UniProt P37238).
T2 sequence (P37238 whole entry): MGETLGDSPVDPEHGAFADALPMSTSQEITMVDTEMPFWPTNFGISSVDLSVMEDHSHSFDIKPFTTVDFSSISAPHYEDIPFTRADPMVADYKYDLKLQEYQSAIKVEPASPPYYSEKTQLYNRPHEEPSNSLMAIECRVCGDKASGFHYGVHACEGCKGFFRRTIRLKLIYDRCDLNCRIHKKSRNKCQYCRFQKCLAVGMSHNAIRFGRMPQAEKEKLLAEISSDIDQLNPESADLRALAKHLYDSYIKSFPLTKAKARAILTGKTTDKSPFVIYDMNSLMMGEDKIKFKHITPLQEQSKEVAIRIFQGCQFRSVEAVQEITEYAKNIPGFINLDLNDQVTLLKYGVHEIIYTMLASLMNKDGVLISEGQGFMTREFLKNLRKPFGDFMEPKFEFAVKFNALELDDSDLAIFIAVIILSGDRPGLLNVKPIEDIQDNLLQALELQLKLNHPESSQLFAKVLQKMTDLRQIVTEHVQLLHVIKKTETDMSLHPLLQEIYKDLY
Kind of assay: Transactivation of mouse PPARgamma expressed in CV1 cells at 100 uM. In kind it is cell-based. The settings on record: cv-1.

Assay [3] has as its target T3, Peroxisome proliferator-activated receptor alpha (Mus musculus, UniProt P23204).
T3 sequence (P23204 whole entry): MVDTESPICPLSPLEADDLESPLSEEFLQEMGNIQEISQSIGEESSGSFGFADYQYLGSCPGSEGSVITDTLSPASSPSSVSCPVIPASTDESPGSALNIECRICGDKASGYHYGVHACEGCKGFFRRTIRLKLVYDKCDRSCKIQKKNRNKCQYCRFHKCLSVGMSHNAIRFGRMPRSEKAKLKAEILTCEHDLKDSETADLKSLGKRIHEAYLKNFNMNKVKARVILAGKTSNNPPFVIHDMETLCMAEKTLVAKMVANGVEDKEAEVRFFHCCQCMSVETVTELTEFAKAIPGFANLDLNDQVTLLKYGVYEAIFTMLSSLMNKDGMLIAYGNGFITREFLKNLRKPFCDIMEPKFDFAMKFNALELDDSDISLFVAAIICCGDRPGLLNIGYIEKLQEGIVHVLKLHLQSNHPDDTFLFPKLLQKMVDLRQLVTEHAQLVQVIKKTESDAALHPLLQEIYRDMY
Kind of assay: Transactivation of mouse PPARalpha expressed in CV1 cells. The format is cell-based, CV-1.

Take `C[C@@H]1C[C@](C)(CCCCCCCCCCCCc2ccccc2)OC1=O`: the concentration giving a half-maximal response (EC50) (commonly the concentration at which the effect is half-maximal) in assay [1] is 34 µM; in assay [2] it was “Not Active”; in assay [3], 39 µM.
`C[C@@H]1C[C@@](C)(CCCCCCCCCCCCc2ccccc2)OC1=O`: the EC50 was 9 µM in assay [1], “Not Active” in assay [2] and 12 µM in assay [3].
The corresponding values for `C[C@H]1C[C@](C)(CCCCCCCCCCCCc2ccccc2)OC1=O` (stereo in doubt) are 16 µM, “Not Active” and 13 µM.
With `C[C@H]1C[C@@](C)(CCCCCCCCCCCCc2ccccc2)OC1=O` (stereo in doubt), the EC50 was 22 µM in assay [1], “Not Active” in assay [2] and 24 µM in assay [3].
With `C[C@H]1C[C@@](C)(CCCCCCCCCCCCc2ccccc2)OC1=O` (stereo in doubt; 1a), the values for the EC50 in assay [1] (cv-1) and in assay [3] were 22 µM and 20 µM, respectively.
As to `C[C@H]1C[C@](C)(CCCCCCCCCCCCc2ccccc2)OC1=O` (stereo in doubt; (+)-1c), the results for the EC50 in assay [1] and in assay [3] were 24 µM and 25 µM, respectively.
